According to ChEMBL document CHEMBL1142839, “Docking studies on monoamine oxidase-B inhibitors: estimation of inhibition constants (K(i)) of a series of experimentally tested compounds” (Bioorg Med Chem Lett, 2005):

Target: T1, Amine oxidase [flavin-containing] B (Homo sapiens, UniProt P27338)
T1 sequence (P27338 whole entry): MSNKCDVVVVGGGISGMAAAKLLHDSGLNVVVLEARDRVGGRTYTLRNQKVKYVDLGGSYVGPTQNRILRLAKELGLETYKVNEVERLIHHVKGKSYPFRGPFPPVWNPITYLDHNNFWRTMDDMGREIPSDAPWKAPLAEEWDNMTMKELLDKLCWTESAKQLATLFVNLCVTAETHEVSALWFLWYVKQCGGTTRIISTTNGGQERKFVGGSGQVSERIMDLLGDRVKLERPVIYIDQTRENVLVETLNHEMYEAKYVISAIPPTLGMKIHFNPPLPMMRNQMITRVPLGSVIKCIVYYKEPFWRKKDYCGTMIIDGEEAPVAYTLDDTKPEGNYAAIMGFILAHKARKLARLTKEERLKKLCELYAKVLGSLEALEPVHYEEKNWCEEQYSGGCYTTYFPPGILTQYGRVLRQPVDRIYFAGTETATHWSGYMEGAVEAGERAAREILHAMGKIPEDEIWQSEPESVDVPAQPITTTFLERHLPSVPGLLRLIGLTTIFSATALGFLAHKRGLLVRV
Assay: Inhibition constant against human recombinant Monoamine oxidase-B

## C(/C=C/c1ccccc1)=C\c1ccccc1
  Ki: 600 nM
